The values below come from patent publication US10898873B2, “Lecithin compositions and methods of making and using such lecithin compositions” (Archer Daniels Midland Company, priority 2015, dated 2021).

A short description of this data set: Solubility of sorbitol in ethanol. The class given is physicochemical. From the text:
Sugar alcohols can become heavily supersaturated upon cooling. When water is slowly replaced with ethanol, there can be a significant change in the maximum concentration at which the solute is completely soluble. In this example, blends of a 70% sorbitol solution and ethanol were made.

As to `OC[C@@H](O)[C@@H](O)[C@H](O)[C@@H](O)CO` [sorbitol], the “clarity of sorbitol/ethanol blend” value is, setting by setting: (70% sorbitol solution and ethanol, ratio 70:30) “completely clear”; (blends with greater than 30% ethanol) “crystallization of the sorbitol”.
